Experimental findings from patent publication US11116754B2, “Inhibition of TOR complex 2 increases immunity against bacterial infection” (THE TRUSTEES OF COLUMBIA UNIVERSITY IN THE CITY OF NEW YORK, priority 2015, dated 2021) are described below.

Assay [1] relates to Burkholderia cepacia. The assay can be described thus: Survival of flies after Burkholderia cepacia infection. Format: in vivo, Drosophila. Conditions: relative to vehicle-fed controls, p<0.0001. Here is the method: Infections were performed as previously described (Schneider et al. 2007) with Burkholderia cepacia (ATCC strain #25416). Death was assayed visually the next day every hour or more frequently as needed. Survival curves are plotted as Kaplan-Meier graphs and log-rank analysis performed using GraphPad Prism. All infection experiments were performed with a minimum of 3 independent trials and yielded statistically similar results, except where noted. Graphs and p-values in figures are representative trials.
To directly test the role of TORC1 in survival of infection, TORC1 activity was inhibited in two ways. First, flies were injected with rapamycin, a TORC1-specific inhibitor (9.6 ng per fly, equivalent to the mammalian dose of 16 mg/kg (Lee et al. 2009; Loeweth et al. 2002)).
Wild type flies, 5-7 day old males, were fed two different concentrations (250 μM and 500 μM) of Torin (MedChem Express), a TORC1 and TORC2 inhibitor, for two days prior to infection with Burkholderia cepacia as described in Example 1. Controls were fed a vehicle.

Assay [2] relates to Burkholderia cepacia. As to the kind of experiment: Bacterial load quantitation after Burkholderia cepacia infection. The assay is classed as in vivo, Drosophila. Conditions: wild type flies fed Torin vs vehicle-fed flies. The source says:
Data are plotted with SEM.

In the case of Torin, the survival of infection result in the assay on Burkholderia cepacia [1] (wild type male flies fed 250 μM for two days prior to infection) and in the assay with Burkholderia cepacia [1] (wild type male flies fed 500 μM for two days prior to infection) was “significantly increased” each time. In the assay on Burkholderia cepacia [2], the bacterial load entry was “not significant change”.
